Laboratory results published in patent US20220125051A1, “PRE-HARVEST DESICCATION METHOD” (SYNGENTA CROP PROTECTION AG, priority 2019, published 2022).

Tests used:
Test in all cases: Post-emergence efficacy, Method A
Type in all cases: in vivo
[1] = test system: Amaranthus palmeri (AMAPA); conditions: evaluated after 13 days; for pest or weed control at 500 g/ha: Amaranthus palmeri, post-emergence, 312 h, Application rate 500 g/Ha, 100=total damage to plant, 0=no damage to plant, read-out: Control of weed species after post-emergence application, AMAPA
Procedure, shortened: (§1)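 Plants grown 14 days in glasshouse (24/16 °C, 14 h light, 65% humidity) were sprayed with compound formulated in IF50. The spray was diluted in 0.25% or 1% Empicol ESC70 plus 1% ammonium sulphate. Damage was scored 13 days later on a 0-100 scale, where 100 is total damage.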

[2] = test system: Chenopodium album (CHEAL); conditions: evaluated after 13 days; for pest or weed control at 500 g/ha: Chenopodium album, post-emergence, 312 h, Application rate 500 g/Ha, 100=total damage to plant, 0=no damage to plant, read-out: Control of weed species after post-emergence application, CHEAL
Procedure, shortened: as §1

[3] = test system: Digitaria sanguinalis (DIGSA); conditions: evaluated after 13 days; for pest or weed control at 500 g/ha: Digitaria sanguinalis, post-emergence, 312 h, Application rate 500 g/Ha, 100=total damage to plant, 0=no damage to plant, read-out: Control of weed species after post-emergence application, DIGSA
Procedure, shortened: as §1

[4] = test system: Echinochloa crus-galli (ECHCG); conditions: evaluated after 13 days; for pest or weed control at 500 g/ha: Echinochloa crus-galli, post-emergence, 312 h, Application rate 500 g/Ha, 100=total damage to plant, 0=no damage to plant, read-out: Control of weed species after post-emergence application, ECHCG
Procedure, shortened: as §1

[5] = test system: Eleusine indica (ELEIN); conditions: evaluated after 13 days; for pest or weed control at 500 g/ha: Eleusine indica, post-emergence, 312 h, Application rate 500 g/Ha, 100=total damage to plant, 0=no damage to plant, read-out: Control of weed species after post-emergence application, ELEIN
Procedure, shortened: as §1

[6] = test system: Euphorbia heterophylla (EPHHL); conditions: evaluated after 13 days; for pest or weed control at 500 g/ha: Euphorbia heterophylla, post-emergence, 312 h, Application rate 500 g/Ha, 100=total damage to plant, 0=no damage to plant, read-out: Control of weed species after post-emergence application, EPHHL
Procedure, shortened: as §1

[7] = test system: Ipomoea hederacea (IPOHE); conditions: evaluated after 13 days; for pest or weed control at 500 g/ha: Ipomoea hederacea, post-emergence, 312 h, Application rate 500 g/Ha, 100=total damage to plant, 0=no damage to plant, read-out: Control of weed species after post-emergence application, IPOHE
Procedure, shortened: as §1

[8] = test system: Lolium perenne (LOLPE); conditions: evaluated after 13 days; for pest or weed control at 500 g/ha: Lolium perenne, post-emergence, 312 h, Application rate 500 g/Ha, 100=total damage to plant, 0=no damage to plant, read-out: Control of weed species after post-emergence application, LOLPE
Procedure, shortened: as §1

[9] = test system: Setaria faberi (SETFA); conditions: evaluated after 13 days; for pest or weed control at 500 g/ha: Setaria faberi, post-emergence, 312 h, Application rate 500 g/Ha, 100=total damage to plant, 0=no damage to plant, read-out: Control of weed species after post-emergence application, SETFA
Procedure, shortened: as §1

[10] = Application Rate 500 g/Ha, Method A

SMILES	pest or weed control at 500 g/ha [1]	pest or weed control at 500 g/ha [2]	pest or weed control at 500 g/ha [3]	pest or weed control at 500 g/ha [4]	pest or weed control at 500 g/ha [5]	pest or weed control at 500 g/ha [6]	pest or weed control at 500 g/ha [7]	pest or weed control at 500 g/ha [8]	pest or weed control at 500 g/ha [9]	Control of weed species after post-emergence application, AMAPA (100=total damage to plant; 0=no damage to plant) [1, 10]	Control of weed species after post-emergence application, CHEAL (100=total damage to plant; 0=no damage to plant) [2, 10]	Control of weed species after post-emergence application, DIGSA (100=total damage to plant; 0=no damage to plant) [3, 10]	Control of weed species after post-emergence application, ECHCG (100=total damage to plant; 0=no damage to plant) [4, 10]	Control of weed species after post-emergence application, ELEIN (100=total damage to plant; 0=no damage to plant) [5, 10]	Control of weed species after post-emergence application, EPHHL (100=total damage to plant; 0=no damage to plant) [6, 10]	Control of weed species after post-emergence application, IPOHE (100=total damage to plant; 0=no damage to plant) [7, 10]	Control of weed species after post-emergence application, LOLPE (100=total damage to plant; 0=no damage to plant) [8, 10]	Control of weed species after post-emergence application, SETFA (100=total damage to plant; 0=no damage to plant) [9, 10]
Cc1cnc(-c2cc[n+](CCC(=O)O)nc2)c(Cl)c1 [Compound A137]	60%	20%	40%	30%	40%	20%	10%	20%	40%	–	–	–	–	–	–	–	–	–
O=C([O-])CC[n+]1ccc(-c2cccc(C(F)(F)F)n2)cn1 [Compound A73]	40%	30%	30%	60%	60%	60%	30%	40%	60%	–	–	–	–	–	–	–	–	–
Cc1cc(Cl)cnc1-c1cc[n+](CCCS(=O)(=O)[O-])nc1 [Compound A102]	20%	50%	10%	10%	10%	20%	0%	10%	10%	–	–	–	–	–	–	–	–	–
O=S(=O)([O-])CC[n+]1ccc(-c2cccc(C(F)(F)F)n2)cn1 [Compound A74]	60%	30%	50%	60%	80%	60%	50%	60%	80%	–	–	–	–	–	–	–	–	–
O=C(O)CC[n+]1ccc(-c2ncc(C(F)(F)F)cn2)cn1 [Compound A129]	70%	50%	60%	90%	40%	70%	10%	80%	60%	–	–	–	–	–	–	–	–	–
Cc1cnc(-c2cc[n+](CCS(=O)(=O)[O-])nc2)c(C)c1 [Compound A152]	20%	10%	30%	20%	20%	20%	0%	10%	20%	–	–	–	–	–	–	–	–	–
COP(=O)(C[n+]1ccc(-c2ncccn2)cn1)OC.O=S(=O)([O-])C(F)(F)F [Compound A238, 1-(dimethoxyphosphorylmethyl)-4-pyrimidin-2-yl-pyridazin-1-ium trifluoromethanesulfonate]	–	–	–	–	–	–	–	–	–	50	20	50	40	30	50	40	10	50
CNC(=O)c1cnc(-c2cc[n+](CCC(=O)[O-])nc2)nc1 [Compound A93]	90%	80%	100%	80%	100%	40%	20%	80%	100%	–	–	–	–	–	–	–	–	–
CCOP(=O)(O)CC[n+]1ccc(-c2ncccn2)cn1 [Compound A113, ethoxy-[2-(4-pyrimidin-2-ylpyridazin-1-ium-1-yl)ethyl]phosphinate]	40%	90%	60%	60%	40%	100%	60%	10%	50%	–	–	–	–	–	–	–	–	–
Cc1cnc(-c2cc[n+](CCS(=O)(=O)[O-])nc2)c(F)c1 [Compound A135]	60%	20%	30%	50%	70%	50%	30%	60%	50%	–	–	–	–	–	–	–	–	–
Cc1cc(F)cnc1-c1cc[n+](CCS(=O)(=O)[O-])nc1 [Compound A104]	10%	0%	30%	30%	50%	20%	30%	10%	30%	–	–	–	–	–	–	–	–	–
O=C(O)CC[n+]1ccc(-c2cnc(C(F)(F)F)cn2)cn1 [Compound A121]	100%	80%	40%	40%	20%	80%	20%	30%	30%	–	–	–	–	–	–	–	–	–
Cc1nccc(-c2cc[n+](CCS(=O)(=O)[O-])nc2)n1 [Compound A31]	100%	100%	90%	60%	80%	50%	100%	60%	50%	–	–	–	–	–	–	–	–	–
CS(=O)(=O)NC(=O)CC[n+]1ccc(-c2ncccn2)cn1 [Compound A89]	100%	40%	50%	60%	40%	100%	70%	40%	70%	–	–	–	–	–	–	–	–	–
O=S(=O)([O-])CCC[n+]1ccc(-c2cncc(Cl)n2)cn1 [Compound A84]	100%	80%	50%	20%	20%	90%	30%	30%	50%	–	–	–	–	–	–	–	–	–
